In article PMC7179259, “Safety, Tolerability, Pharmacokinetics, and Antimalarial Activity of the Novel Plasmodium Phosphatidylinositol 4-Kinase Inhibitor MMV390048 in Healthy Volunteers” (Antimicrobial Agents and Chemotherapy, 2020):
Read-outs that look alike come from different tables or passages of the source.

Key:
[1] = Induced blood-stage malaria (IBSM) study: plasma pharmacokinetics; assay type: in vivo; conditions: human; for AUC(0-t): oral, 20 mg
Experimental: (§1) (ii) IBSM study. The dose of MMV390048 chosen (20 mg) was based on the pharmacokinetic, safety, and tolerability data available from the first-in-human study at the time the IBSM study commenced (when 5- and 20-mg-dose cohorts of the first-in-human study had been completed). This dose was below the estimated single dose required to achieve complete cure calculated from preclinical studies (80 to 100 mg) since recrudescence allows for characterization of the pharmacokinetic/pharmacodynamic relationship between MMV390048 and P. falciparum parasitemia. Subjects were inoculated intravenously on day 0 with erythrocytes infected with ∼1,800 viable chloroquine-sensitive P. falciparum 3D7 parasites ([17]). Fasted (≥8 h) subjects were dosed with MMV390048 when they reached the parasitemia threshold for treatment (∼1,000 parasites ml^−1) and were followed up until the end-of-study visit on day 28.
(§2) Blood samples from the three studies were analyzed at the University of Cape Town Division of Clinical Pharmacology Laboratory. MMV390048 was extracted from plasma using a protein precipitation procedure and analyzed using a liquid chromatography-tandem mass spectrometry assay. The precision (total assay coefficients of variation) for MMV390048 during sample analysis was less than 8% at all quality control levels, including the limit of quantification, which was 0.5 ng ml^−1. The full details of the assay are included in the supplemental material.
(§3) Noncompartmental pharmacokinetic analysis was performed using Phoenix WinNonlin Pro version 6.3 (Certara L.P., St. Louis, MO, USA) for the first-in-human and the formulation optimization studies, and using R version 3.2.0 for the IBSM study. Pharmacokinetic endpoints were the peak plasma concentration (Cmax), time at which Cmax is reached (Tmax), area under the concentration-time curve from 0 h to infinity (AUC0–inf), elimination half-life (t½), apparent clearance (CL/F), and apparent volume of distribution (Vz/F).

[2] = First-in-human single-ascending-dose study: plasma pharmacokinetics; assay type: in vivo; conditions: for half-life / Tmax / AUC(0-inf) / Cmax / Vd/F: human, plasma; for Vd/F: read-out: Vz/F
Experimental: (i) First-in-human study. The study was conducted in five fasted cohorts (5, 20, 40, 80, and 120 mg) and one fed 40-mg cohort. The initial dose of 5 mg was chosen in agreement with guidelines on dose selection for first-in-human clinical studies ([15], [16]) and was based on the no-observed-adverse-event level for the most sensitive species observed in preclinical toxicology studies. Doses administered to subsequent cohorts were determined a priori after consideration of interim human pharmacokinetic and safety data.
All subjects in the fasted cohorts were dosed on day 1 after a fasting period of ≥8 h. Water was prohibited from 2 h predose and then allowed ad libitum from 2 h postdose, and standardized meals were provided from 4 h postdose. In the first two cohorts (5 and 20 mg), a sentinel subcohort (n = 2) was dosed on day 1. The safety review team reviewed safety and pharmacokinetic data of these subjects up to day 3 before dosing the rest of these two cohorts and up to day 19 for all cohorts before dose escalation. […] Selected subjects from the fasted cohorts then received 40 mg in a fed state to evaluate the effect of food on the tolerability and pharmacokinetic profile of MMV390048. […] The predose breakfast was in line with FDA guidelines ([13]) and was composed of approximately 800 to 1,000 calories (cal), with 150, 250, and 500 to 600 cal from protein, carbohydrate, and fat, respectively.
as §2, §3

[3] = test system: P. falciparum 3D7; experiment: Induced blood-stage malaria (IBSM) study: antimalarial activity (parasitemia by qPCR); assay type: in vivo, Plasmodium falciparum; conditions: 20 mg single dose
Experimental: as §1
Parasitemia was monitored by collecting blood samples and performing quantitative PCR (qPCR) targeting the gene encoding P. falciparum 18S rRNA ([20]). Blood samples were collected daily from day 4 until parasites were detectable; twice daily until MMV390048 dosing; before MMV390048 dosing and 2, 4, 8, 12, 16, 20, 24, 30, 36, 48, 60, and 72 h after MMV390048 dosing; twice daily until parasitemia was not detected over a 48-h period; 3 times per week until artemether-lumefantrine treatment; and then at the end of the study (day 28).

[4] = single oral 20 mg fasted, powder-in-bottle, n = 6, geometric mean (CV %)
[5] = po, 5 mg, single oral 5 mg fasted, powder-in-bottle, n = 6, geometric mean (CV %)
[6] = po, 20 mg, single oral 20 mg fasted, powder-in-bottle, n = 6, geometric mean (CV %)
[7] = po, 40 mg, single oral 40 mg FED (high-fat breakfast), powder-in-bottle, n = 6, geometric mean (CV %)
[8] = po, 40 mg, single oral 40 mg fasted, powder-in-bottle, n = 6, geometric mean (CV %)
[9] = po, 80 mg, single oral 80 mg fasted, powder-in-bottle, n = 6, geometric mean (CV %)
[10] = po, 120 mg, single oral 120 mg fasted, powder-in-bottle, n = 5, geometric mean (CV %)

CS(=O)(=O)c1ccc(-c2cnc(N)c(-c3ccc(C(F)(F)F)nc3)c2)cc1 [MMV390048]
AUC(0-t) ([1]; the 4 subjects who recrudesced 2 days after treatment): 6000 to 9000 ng·h/mL
AUC(0-t) ([1]; the two subjects who recrudesced 7 days after treatment): ~12000 ng·h/mL
AUC(0-inf) [1, 4]: 15900 ng·h/mL
Cmax [1, 4]: 106 ng/mL
Tmax ([1]; single oral 20 mg fasted, powder-in-bottle, n = 6, median (range)): 2 h
half-life ([2]; oral, all cohorts, powder-in-bottle, read-out: elimination half-life): > 149 h
Tmax ([2]; oral, fasted cohorts, read-out: median time of maximum concentration (Tmax)): 1 to 2.5 h
AUC(0-inf) [2, 5]: 2140 ng·h/mL
Cmax [2, 5]: 15.6 ng/mL
Vd/F [2, 5]: 520 L
half-life ([2]; po, 5 mg, single oral 5 mg fasted, powder-in-bottle, n = 6, geometric mean (CV %), read-out: t1/2 (converted)): 154 h
Tmax ([2]; po, 5 mg, single oral 5 mg fasted, powder-in-bottle, n = 6, median (range), read-out: Tmax): 1 h
AUC(0-inf) [2, 6]: 33300 ng·h/mL
Cmax [2, 6]: 136 ng/mL
Vd/F [2, 6]: 266 L
half-life ([2]; po, 20 mg, single oral 20 mg fasted, powder-in-bottle, n = 6, geometric mean (CV %), read-out: t1/2 (converted)): 306 h
Tmax ([2]; po, 20 mg, single oral 20 mg fasted, powder-in-bottle, n = 6, median (range), read-out: Tmax): 2 h
AUC(0-inf) [2, 7]: 34500 ng·h/mL
Cmax [2, 7]: 155 ng/mL
Vd/F [2, 7]: 373 L
half-life ([2]; po, 40 mg, single oral 40 mg FED (high-fat breakfast), powder-in-bottle, n = 6, geometric mean (CV %), read-out: t1/2 (converted)): 223 h
Tmax ([2]; po, 40 mg, single oral 40 mg FED (high-fat breakfast), powder-in-bottle, n = 6, median (range), read-out: Tmax): 4 h
AUC(0-inf) [2, 8]: 17600 ng·h/mL
Cmax [2, 8]: 74.4 ng/mL
Vd/F [2, 8]: 624 L
half-life ([2]; po, 40 mg, single oral 40 mg fasted, powder-in-bottle, n = 6, geometric mean (CV %), read-out: t1/2 (converted)): 190 h
Tmax ([2]; po, 40 mg, single oral 40 mg fasted, powder-in-bottle, n = 6, median (range), read-out: Tmax): 2.5 h
AUC(0-inf) [2, 9]: 62000 ng·h/mL
Cmax [2, 9]: 238 ng/mL
Vd/F [2, 9]: 444 L
half-life ([2]; po, 80 mg, single oral 80 mg fasted, powder-in-bottle, n = 6, geometric mean (CV %), read-out: t1/2 (converted)): 239 h
Tmax ([2]; po, 80 mg, single oral 80 mg fasted, powder-in-bottle, n = 6, median (range), read-out: Tmax): 1 h
AUC(0-inf) [2, 10]: 82600 ng·h/mL
Cmax [2, 10]: 518 ng/mL
Vd/F [2, 10]: 432 L
half-life ([2]; po, 120 mg, single oral 120 mg fasted, powder-in-bottle, n = 5, geometric mean (CV %), read-out: t1/2 (converted)): 206 h
Tmax ([2]; po, 120 mg, single oral 120 mg fasted, powder-in-bottle, n = 5, median (range), read-out: Tmax): 1 h
CL/F ([2]; single oral 5 mg fasted, powder-in-bottle, n = 6, geometric mean (CV %)): 2.3 (76.3) liters h^−1
CL/F [2, 4]: 0.6 (17.1) liters h^−1
CL/F ([2]; single oral 40 mg FED (high-fat breakfast), powder-in-bottle, n = 6, geometric mean (CV %)): 1.2 (67.5) liters h^−1
CL/F ([2]; single oral 40 mg fasted, powder-in-bottle, n = 6, geometric mean (CV %)): 2.3 (86.8) liters h^−1
CL/F ([2]; single oral 80 mg fasted, powder-in-bottle, n = 6, geometric mean (CV %)): 1.3 (46.0) liters h^−1
CL/F ([2]; single oral 120 mg fasted, powder-in-bottle, n = 5, geometric mean (CV %)): 1.5 (165.8) liters h^−1
time to recrudescence after MMV390048 dosing ([3]; n = 2 subjects (highest exposure)): 7 days
time to recrudescence after MMV390048 dosing ([3]; n = 4 subjects): 2 days
parasitemia following administration ([3]; n = 6): decreased initially in all subjects
recrudescence ([3]; n = 6): observed in all subjects
